In patent publication US20130190324A1, “TOPICAL OCULAR DRUG DELIVERY” (The Regents of the University of Colorado, a body corporate, priority 2011, published 2013):
Converted amounts (≈) assume the structure as drawn. “Also recorded” adds a separate entry of the source. Where two headings read alike, the source gives them in different places. Each block holds one molecule with its values, some of them ahead of it.

Experiments:
[1] = tested on: New Zealand white rabbit cornea; test: In vitro transport across rabbit cornea (Ussing chamber); assay type: in vitro ADME; settings: for transport in presence of OCT competitive inhibitor MPP+: MPP+ 500 μM for GFX-ARG ion pair
Protocol: (§1) In vitro transport of […], and GFX-LYS were carried out across the New Zealand white rabbit cornea and sclera-choroid-[…]). Rabbit eyes were obtained within 24 hr of harvesting from Pel-Freez Biologicals (Rogers, Ark.) and shipped overnight in Hank's balanced salt solution on wet ice. Eyes were used immediately upon arrival. Eyes were washed with assay buffer and cleaned from the muscle and unwanted tissues. […] The small part of the sclera left with cornea helps in mounting the cornea on Ussing chambers. For isolation of the SCRPE, anterior and posterior parts were separated by a circumferential cut at the limbus. […] After separation of the retina, the eye cup was flattened with small cuts around the globe. […] A circulating water bath was used to maintain the temperature at 37° C. during the transport study. The pH of the assay buffer was maintained at 7.4 using 95% air-5% CO2 aeration which also helps in stirring of bathing solutions. Samples were collected (200 μL) from the receiver side every 30 minute for 3 hr and the lost volume was replaced with fresh assay buffer pre-equilibrated at 37° C. GFX levels were analyzed using an LC-MS/MS assay. […] GFX concentrations in the transport study and ocular tissue samples were analyzed using a validated LC-MS/MS method. […] Chromatographic separation of GFX and the internal standard moxifloxacin was performed on Obelisc C18 column (2.1×10 mm, 3 μm). Elution of analytes was performed using linear gradient elution with mobile phase consisting of 5 mM ammonium formate (pH 3.5) and acetonitrile (pH 3.5) with a flow rate of 300 μl/min and total run time of 6 min.

[2] = tested on: New Zealand white rabbit sclera-choroid-RPE (SCRPE); test: In vitro transport across rabbit sclera-choroid-RPE (Ussing chamber); assay type: in vitro ADME; settings: rabbit SCRPE; for transport in presence of OCT competitive inhibitor MPP+: MPP+ 500 μM for GFX-ARG ion pair
Protocol: as §1

conjunctiva = test: In vitro transport of GFX prodrugs across conjunctiva; assay type: in vitro ADME, Rabbit
[3] = In vivo ocular tissue distribution after single topical eye drop; parameters: species or system pigmented rabbits
Protocol: Male New Zealand Satin rabbits in the weight range of 1.8 to 3 kg were obtained from Western Oregon Rabbit Company (Philmoth, Oreg.). Rabbits were divided into two groups (2 animals each), one group received GFX solution (5 mg/ml) in sterile phosphate buffer saline (PBS), and the other group received the GFX-ARG (1:1) ion pair complex (5.0 mg/ml) solution in PBS. Rabbits were restrained in a rabbit restrainer and allowed to stabilize for 5-10 minutes. A topical eye drop (30 μl) of drug solution was applied in both eyes of rabbits using a positive displacement pipette (Gilson 10-100 μl) and sterile tips. To minimize the runoff of instilled dose, the eyelids were gently closed for few seconds after dosing. The time of dose administered was recorded for each animal. After 1 hr of dosing, blood samples were collected from the marginal ear vein and rabbits were euthanized by intravenous injection of sodium pentobarbitone (150 mg/kg) in the marginal ear vein. […]
GFX content in rabbit ocular tissues was measured from the tissues by acetonitrile based extraction. […]
The aqueous humor and vitreous samples were analyzed directly after dilution, without extraction. […]
GFX concentrations in the transport study and ocular tissue samples were analyzed using a validated LC-MS/MS method. […]

[4] = tested on: calf sclera-choroid-RPE (SCRPE); test: In vitro transport of substrate cassette across normoxic and hypoxic calf SCRPE
From the text: (§2) Animals used in this study were those that were sacrificed as part of other experiments approved by the Institutional Animal Care Committee of the Colorado State University (Fort Collins) and University of Colorado Anschutz Medical campus. Hypoxic and normoxic calf eyes were obtained from the Department of Physiology, School of Veterinary Medicine, Colorado State University (Fort Collins, Colo.). Briefly, 1 day old male Holstein calves (n=4) were kept in hypobaric hypoxic chambers (PB=445 mm Hg) for 2 weeks. For control experiment, age matched calves (n=4) were kept at ambient altitude (PB=650 mm Hg) and normoxia for two weeks. Hypoxic and normoxic rat eyes were obtained from the Department of Medicine, University of Colorado Anschutz Medical campus (Aurora, Colo.). Sprague Dawley rats (n=4) were maintained in hypobaric hypoxic chambers (PB=380 mm Hg) for 6 weeks and age matched controls were kept at ambient pressure and normoxia.
(§3) In vitro transport studies across hypoxic and control calf cornea and sclera-choroid-RPE (SCRPE) were carried using cassette dosing approach. A cassette of drug transporter substrates, Gly-Sar (PEPT), valacylovir (ATB^0+), MPP^+ (OCT), and phenylacetic acid (MCT) at a concentration of 100 μM each in assay buffer was prepared. Briefly, the calf eyes were harvested immediately after euthanasia and transferred to the laboratory on ice. Upon arrival in the lab, the eyes were washed with assay buffer and cleaned from muscle and unwanted tissues. Anterior and posterior parts were separated by circumferential cut at the limbus. Vitreous was removed and the neural retina was separated from the choroid-RPE by filling the eye cup with assay buffer. The retina afloat in assay buffer was isolated and the eye cup was divided into two pieces (˜1.5×1.5 cm) of sclera-choroid-RPE. Isolated tissues were mounted on modified Ussing chambers (Navicyte, Sparks, Nev.) such that the episcleral side of SCRPE or epithelial side of cornea was facing the donor chamber and retinal side or endothelial side of the cornea was facing the receiver chamber. The chambers were filled with 1.5 ml of assay buffer at 37° C. with (donor side) or without (receiver side) the cocktail of drug transporter substrates. For the study of effect of transporter inhibitors, cocktail mixture (500 μM) of transporter inhibitors was added on both donor and acceptor sides.
(§4) During the transport study, the bathing fluids were maintained at 37° C. using circulating warm water. The pH of the fluids was maintained at pH 7.4 using 95% air-5% CO2 aeration. Samples were collected (200 μL) from receiver side every hour for 6 hours and the removed volume was replaced with fresh assay buffer pre-equilibrated to 37° C. Drug levels were analyzed using a LC-MS/MS assay. Permeation data were corrected for dilution of the receiver concentrations with sample volume replenishment.
(§5) Analyte concentrations in transport study samples were measured using LC-MS/MS method after 5-fold dilution with acetonitrile to reduce the salt concentrations. A cassette analysis method was developed for simultaneous analysis of Gly-Sar, valacylovir, and MPP Phenyl acetic acid was analyzed separately with a negative ionization method and a normal phase separation method. An API-3000 triple quadrupole mass spectrometry (Applied Biosystems, Foster City, Calif., USA) coupled with a PerkinElmer series-200 liquid chromatography (Perkin Elmer, Waltham, Mass., USA) system was used for analysis. Gly-Sar, valacylovir and MPP were separated on Supelco C-5 column (2.1×10 mm, 3 μm) using water containing 0.1% formic acid (A) and acetonitrile:methanol (50:50 v/v) containing 0.1% formic acid (B) as mobile phase. A linear gradient elution at a flow rate of 0.3 ml/min with a total run time of 9 min was employed. Phenyl acetic acid was separated in normal phase separation mode on Obelisc-N silica column (2.1×10 mm, 3 μM) using 5 mM ammonium formate at pH 3.5 (A) and acetonitrile (B) as mobile phase.

[5] = cited from earlier work
calf cornea = test: In vitro transport of substrate cassette across normoxic and hypoxic calf cornea
From the text: as §2, §3, §4, §5

[6] = single eye drop, cited from earlier work
[7] = Aqueous solubility of GFX and ion pair complex in PBS; assay type: physicochemical; settings: phosphate buffer saline (PBS), thermodynamic from solid, phosphate buffer saline pH 7.4, 37° C., mean ± SD, n = 3

- cumulative % transport / permeability compared with GFX (in words) [1]: significantly (p<0.01) higher than GFX
- transport in presence of OCT competitive inhibitor MPP+ [1]: significantly inhibited
- cumulative % transport / permeability compared with GFX (in words) [2]: significantly (p<0.01) higher than GFX
- transport in presence of OCT competitive inhibitor MPP+ [2]: significantly inhibited
- cumulative % transport compared with GFX (in words) (conjunctiva): significantly (p<0.01) higher than GFX
- transport in presence of OCT competitive inhibitor MPP+ (conjunctiva): significantly inhibited
- solubility (physchem; water for injection): 33.3 mg/mL (≈ 72.4 mM)
Compound: COc1c(N2CCNC(C)C2)c(F)cc2c(=O)c(C(=O)NCCCN(C)C)cn(C3CC3)c12 (stereo not shown) [GFX-OCT, 1-cyclopropyl-N-(3-(dimethylamino)propyl)-6-fluoro-8-methoxy-7-(3-methylpiperazin-1-yl)-4-oxo-1,4-dihydroquinoline-3-carboxamide]
- levels in posterior tissues compared with GFX (in words) ([3]; vitreous humor and CRPE, 1 h after topical eye drop): higher concentrations of GFX in all posterior tissues

- cumulative % transport / permeability compared with GFX (in words) [1]: significantly improved permeability
- transport in presence of OCT competitive inhibitor MPP+ [1]: inhibited significantly
- cumulative % transport in presence vs absence of ATB0+ inhibitor α-methyl tryptophan ([1]; inhibitor 500 μM): no significant difference
- cumulative % transport / permeability compared with GFX (in words) [2]: significantly improved permeability
- transport in presence of OCT competitive inhibitor MPP+ [2]: inhibited significantly
- cumulative % transport in presence vs absence of ATB0+ inhibitor α-methyl tryptophan ([2]; inhibitor 500 μM): no significant difference
- solubility (physchem; water): 25.5 mg/mL (≈ 48 mM)
- solubility (physchem; water for injection): 25.5 mg/mL (≈ 48 mM)
Compound: COc1c(N2CCN(C(=O)C(N)CCCNC(=N)N)C(C)C2)c(F)cc2c(=O)c(C(=O)O)cn(C3CC3)c12 (stereo not shown) [GFX-ARG, 7-(4-(2-amino-5-guanidinopentanoyl)-3-methylpiperazin-1-yl)-1-cyclopropyl-6-fluoro-8-methoxy-4-oxo-1,4-dihydroquinoline-3-carboxylic acid]
- transport in presence of OCTN inhibitor L-carnitine ([1]; L-carnitine 500 μM): did not show any significant inhibitory effect
- transport in presence of OCTN inhibitor L-carnitine ([2]; L-carnitine 500 μM): did not show any significant inhibitory effect
- GFX ocular tissue levels compared with GFX alone (in words) ([3]; all ocular tissues, 1 hr after single topical 30 μl eye drop, 5 mg/ml in PBS): higher concentrations of GFX in all ocular tissues; also recorded: enhanced ocular delivery to all ocular tissues

Compound: CC(C)[C@H](N)C(=O)OCCOCn1cnc2c(=O)[nH]c(N)nc21 [valacylovir]
- apparent permeability (Papp) across hypoxic vs normoxic tissue (in words) ([4]; calf SCRPE): significantly higher across normoxic SCRPE than hypoxic SCRPE
- transport across hypoxic vs normoxic tissue (in words) ([4]; calf SCRPE, cassette 100 μM): significantly decreased in hypoxic calf SCRPE; also recorded: significantly higher across normoxic calf SCRPE than hypoxic calf SCRPE
- decrease in cumulative % transport across hypoxic tissue ([4]; hypoxic vs normoxic calf SCRPE): 61%
- increase in oral bioavailability as compared to parent acyclovir [5]: three to five fold increase
- apparent permeability (Papp) across hypoxic vs normoxic tissue (in words) (calf cornea; calf cornea): significantly higher across normoxic cornea than hypoxic cornea
- transport across hypoxic vs normoxic tissue (in words) (calf cornea; calf cornea, cassette 100 μM): significantly higher across normoxic calf cornea than hypoxic calf cornea
- decrease in cumulative % transport across hypoxic tissue (calf cornea; hypoxic vs normoxic calf cornea): 36%

- solubility at 24 h [7]: 5.49 mg/mL (≈ 14.6 mM)
- solubility (physchem; water): 0.64 mg/mL (≈ 1.7 mM)
- solubility (physchem; water for injection): 2.5 mg/mL (≈ 6.66 mM)
Compound: COc1c(N2CCNC(C)C2)c(F)cc2c(=O)c(C(=O)O)cn(C3CC3)c12 (stereo not shown) [GFX, gatifloxacin]
- reported Tmax ([6]; aqueous humor): 19.8 min
- reported Tmax ([6]; cornea): 4.98 min
